Holding throughout (format): in vivo, SD rats
The subject of assay [1] is rat models with focal cerebral ischemia-reperfusion (tMCAO). Put plainly: Behavioral scoring of tMCAO model rats. Conditions: about 24 h after last administration, x ± s. On the procedure: (§1) Rat models with focal cerebral ischemia-reperfusion (tMCAO) were prepared by using a suture-occluded method, and therapeutic effects of the test drugs on the tMCAO model rats were investigated.
(§2) A specific modeling method for the rat models with focal cerebral ischemia-reperfusion (tMCAO) is as follows. At 12 h before surgery, the rats were fed at about 30 g/piece. After induced anesthesia with 3-4% isoflurane and maintained anesthesia with 1.5-2.5% isoflurane were performed, the rats were placed at supine positions on an operating table at a constant temperature of 37° C. The skin in middle lines of necks was cut, subcutaneous tissues and muscles were bluntly separated, and common carotid arteries on right sides, internal carotid arteries and external carotid arteries were separated. Two ligation threads were allowed to penetrate through the external carotid arteries to ligate distal ends, an artery clamp was placed at the common carotid arteries and the internal carotid arteries, respectively, small incisions were made at 45° diagonally on the external carotid arteries at about 4 mm away from bifurcations of the common carotid arteries, and suitable suture occlusions were inserted to gently ligate proximal ends. The external carotid arteries were cut, directions and angles of the suture occlusions were adjusted, the suture occlusions were gently pushed and inserted into the internal carotid arteries, and then the artery clamps were released. The suture occlusions were continuously inserted until black dot marks of the suture occlusions reached junctions of the internal carotid arteries and the common carotid arteries at a length of about 18-20 mm. The proximal ends of the external carotid arteries were tightened, the suture occlusions were fixed, the skin was sutured after it was confirmed that there was no bleeding, the body temperature of the rats was maintained, and meloxicam as an analgesic drug was injected subcutaneously at 1 mg/kg.
(§3) At 2 h after ischemia, induced anesthesia with 3-4% isoflurane and maintained anesthesia with 1.5-2.5% isoflurane were performed, the skin sutures were cut, the ligation threads at the proximal ends of the external carotid arteries were opened, the suture occlusions were taken out, reperfusion was performed, ligation was performed again, and the skin was sutured after it was confirmed that there was no bleeding. In a sham-operated control group, other steps were the same as above except that the suture occlusions were inserted and pulled out immediately and the reperfusion was not required. After the surgery, the rats were allowed to lie prostrate and return to a cage.
(§4) When the animals were awake after modeling, behavioral scoring was performed on the animals with reference to a 4-point scoring standard of Zea longa. The animals with scores of 1-3 points were judged as successfully modeled animals, and the animals not meeting requirements were eliminated.
(§5) Method: SPF-grade male SD rats were used, the various tMCAO rat models were prepared by using the suture-occluded method, and the successfully modeled animals were randomly divided into 6 groups including a model control group, a test drug group 1, a test drug group 2, a test drug group 3, a test drug group 4 and a test drug group 5, with 6 or more animals in each group. In addition, the sham-operated control group was set, which involved 6 animals with the suture occlusions inserted and pulled out immediately in the surgery. […]

Assay [2] has the same test system. Put plainly: Percentage of cerebral infarction area (TTC staining) in tMCAO model rats. The conditions noted are these: Gavage, about 24 h after last administration, x ± s. The protocol: as §1, §2, §3, §4, §5
Assay [3] shares this test system. Put plainly: Rotarod test (latent period of falling) in tMCAO model rats. Conditions: Gavage, 3 × 10^−5 mol/kg, 3 administrations, about 24 h after last administration, x ± s. On the procedure:
as §1, §2, §3, §4, §5

For assay [4] the test system is unchanged. Put plainly: Cerebral blood flow in tMCAO model rats. The conditions noted are these: x ± s; for Cerebral blood flow 24 h after last administration / Cerebral blood flow improvement percentage / Recovery percentage of cerebral blood flow 24 h after last administration: 24 h after last of 3 administrations, 3×10^−5 mol/kg; for Cerebral blood flow before administration / Decrease percentage of cerebral blood flow before administration: after ischemia, before first administration; for Cerebral blood flow before ischemia: baseline before surgery, before any administration. The protocol: as §1, §2, §3, §4
as §5, with “surgery. At 4 h after the cerebral ischemia (at 4 h after the suture occlusions were pulled out in the sham-operated group), the various groups were given the various drugs or a vehicle for the first time. In each group, an administration dose was 3×10^−5 mol/kg, an administration volume was 3 mL/kg, administration was performed for a total of 3 times, and an administration time interval of every two times was 24 h.” for “surgery.”

Assay [5] shares this test system. The experiment in a line: Drug efficacy test in tMCAO model rats, overall result. The conditions noted are these: latent period of falling, behavioral scores, infarction area, cerebral blood flow. On the procedure: as §1
A specific modeling method for the rat models with focal cerebral ischemia-reperfusion (tMCAO) is as follows. At 12 h before surgery, the rats were fed at about 30 g/piece. After induced anesthesia with 3-4% isoflurane and maintained anesthesia with 1.5-2.5% isoflurane were performed, the rats were placed at supine positions on an operating table at a constant temperature of 37° C. The skin in middle lines of necks was cut, subcutaneous tissues and muscles were bluntly separated, and common carotid arteries on right sides, internal carotid arteries and external carotid arteries were separated. Two ligation threads were allowed to penetrate through the external carotid arteries to ligate distal ends, an artery clamp was placed at the common carotid arteries and the internal carotid arteries, respectively, small incisions were made at 45° diagonally on the external carotid arteries at about 4 mm away from bifurcations of the common carotid arteries, and suitable suture occlusions were inserted to gently ligate proximal ends. […]

Marks after values point to notes of the source that are not given here.

In assay [1] (route printed as Intravenous injection and Gavage, 3 × 10^−5 mol/kg), `Cc1cc(OC(=O)c2cccnc2)n(-c2nc(C)c(C)nc2C)n1` [Test drug 1, 3-methyl-1-(3,5,6-trimethylpyrazin-2-yl)-1H-pyrazol-5-nicotinate] registered a Behavioral score of 1.9 ± 0.6. For the same molecule, the “Percentage of cerebral infarction area” value in assay [2] (3 × 10^−5 mol/kg) amounted to 4.6 ± 1.2 %. Also, the “Latent period of falling (rotarod test)” value in assay [3] came out at 48.7 ± 14.0 s. In assay [4], the “Cerebral blood flow 24 h after last administration” value was found to be 304.8 ± 12.7 BPU, the “Cerebral blood flow improvement percentage” value was found to be 28.7 ± 4.9 %, the “Recovery percentage of cerebral blood flow 24 h after last administration” value (from here on “Recovery percentage”) was found to be 87.8 ± 2.0 % and the “Cerebral blood flow before administration” value is 204.6 ± 10.3 BPU. In assay [4], the “Decrease percentage of cerebral blood flow before administration” value (from here on “Decrease percentage”) is listed as 40.9 ± 5.2% and the “Cerebral blood flow before ischemia” value is recorded as 347.5 ± 19.3 BPU.
For `CC(=O)Oc1cc(C)nn1-c1nc(C)c(C)nc1C` [Test drug 2, 3-methyl-1-(3,5,6-trimethylpyrazin-2-yl)-1H-pyrazol-5-acetate], in assay [1] (Gavage, 3 × 10^−5 mol/kg), the Behavioral score is reported as 2.3 ± 0.7. In addition, the “Percentage of cerebral infarction area” value in assay [2] (3 × 10^−5 mol/kg) was found to be 5.8 ± 2.2 %. For the same molecule, the “Latent period of falling (rotarod test)” value in assay [3] is recorded as 35.2 ± 23.3 s. Further, in assay [4], the “Cerebral blood flow 24 h after last administration” value is listed as 367.8 ± 36.9 BPU, the “Cerebral blood flow improvement percentage” value stood at 20.9 ± 13.8 %, the “Recovery percentage” value is recorded as 79.3 ± 8.9 % and the “Cerebral blood flow before administration” value is 213.3 ± 16.6 BPU. Also, in assay [4], the “Decrease percentage” value came to 41.6 ± 8.6% and the “Cerebral blood flow before ischemia” value worked out at 371.8 ± 51.6 BPU.
For the molecule `CC(=O)Oc1ccccc1C(=O)Oc1cc(C)nn1-c1nc(C)c(C)nc1C` [Test drug 3, 3-methyl-1-(3,5,6-trimethylpyrazin-2-yl)-1H-pyrazol-5-yl-2-acetoxybenzoate], the Behavioral score in assay [1] (Gavage, 6 × 10^−5 mol/kg) stood at 1.6 ± 0.7. Moreover, the “Percentage of cerebral infarction area” value in assay [2] (6 × 10^−5 mol/kg) was 3.5 ± 1.6**^& %. In addition, in assay [5], the “Overall therapeutic effect in tMCAO rats (in words; vs model control group and between test drug groups)” value was “better than the groups 2 and 5”. The “Latent period of falling (rotarod test)” value in assay [3] is on record as 49.7 ± 12.3 s. Besides, in assay [4], the “Cerebral blood flow 24 h after last administration” value is reported as 321.4 ± 54.0 BPU, the “Cerebral blood flow improvement percentage” value was found to be 30.3 ± 7.1 %, the “Recovery percentage” value is reported as 90.1 ± 4.2**^&& % and the “Cerebral blood flow before administration” value is 210.3 ± 15.1 BPU. Also, in assay [4], the “Decrease percentage” value is recorded as 40.1 ± 6.3% and the “Cerebral blood flow before ischemia” value was 356.5 ± 56.6 BPU.
In turn, `Cc1cc(OC(=O)c2ccccc2)n(-c2nc(C)c(C)nc2C)n1` [Test drug 4, 3-methyl-1-(3,5,6-trimethylpyrazin-2-yl)-1H-pyrazol-5-yl-benzoate] showed a Behavioral score in assay [1] (Gavage, 3 × 10^−5 mol/kg) of 1.7 ± 0.7. Also, the “Percentage of cerebral infarction area” value in assay [2] (3 × 10^−5 mol/kg) stood at 4.5 ± 2.5 %. Besides, the “Overall therapeutic effect in tMCAO rats (in words; vs model control group and between test drug groups)” value in assay [5] was “better than the groups 2 and 5”. The “Latent period of falling (rotarod test)” value in assay [3] came out at 43.8 ± 14.9 s. In assay [4], the “Cerebral blood flow 24 h after last administration” value was determined as 321.2 ± 17.0 BPU, the “Cerebral blood flow improvement percentage” value amounted to 27.0 ± 7.3 %, the “Recovery percentage” value is 87.0 ± 5.8**^& % and the “Cerebral blood flow before administration” value was 220.8 ± 16.4 BPU. In addition, in assay [4], the “Decrease percentage” value is listed as 40.0 ± 7.1% and the “Cerebral blood flow before ischemia” value is reported as 370.2 ± 17.2 BPU.
In turn, `Cc1cc(OC(=O)C(C)(C)C)n(-c2nc(C)c(C)nc2C)n1` [Test drug 5, 3-methyl-1-(3,5,6-trimethylpyrazin-2-yl)-1H-pyrazol-5-pivalate] had a Behavioral score in assay [1] (Gavage, 6 × 10^−5 mol/kg) of 2.7 ± 0.9. The “Percentage of cerebral infarction area” value in assay [2] (6 × 10^−5 mol/kg) stood at 2.9 ± 1.0 %. Besides, in assay [3], the “Latent period of falling (rotarod test)” value was 31.5 ± 14.5^ s. In addition, in assay [4], the “Cerebral blood flow 24 h after last administration” value is 275.0 ± 20.5 BPU, the “Cerebral blood flow improvement percentage” value is 21.2 ± 4.7*^ %, the “Recovery percentage” value is reported as 81.6 ± 5.9**^ % and the “Cerebral blood flow before administration” value is recorded as 203.3 ± 8.1 BPU. Besides, in assay [4], the “Decrease percentage” value is 39.5 ± 4.4% and the “Cerebral blood flow before ischemia” value was 337.9 ± 26.0 BPU.
